“Also recorded” adds a separate entry of the source. Where two headings read alike, the source gives them in different places. Peptide text beside a SMILES is read from it.
Legend:
Assay type in all cases: in vivo, Sprague Dawley rats
[1] = Pharmacokinetics of single subcutaneous injection of F3 (1.0 mg/kg); conditions: single s.c. 1.0 mg/kg, plasma, LC-MS/MS; for AUC(0-inf) / AUC(0-t) / Cmax / Tmax / half-life / CL/F / MRT: Sprague-Dawley, rat, sc; for CL/F: read-out: Cl_F_obs (clearance rate) (converted); for MRT: read-out: MRTInf_obs (mean residence time)
Procedure: A single subcutaneous injection of 1.0 mg/kg F3 was given to a total of 12 SD rats (6 females, 6 males). Before and after F3 administration, whole blood samples were collected at predetermined time intervals (0, 0.5, 1, 2, 4, 6, 8, 24, 48, 72, 96, 144, and 192 hr). At each time point, at least 0.5 ml blood samples were taken alternatively from 3M/3F rats.
(§1) The concentration of F3 in rat plasma was determined by liquid chromatography-tandem mass spectrometry, using the method established by Kanglong Huacheng Co., Ltd. The analyte was assayed by liquid chromatography coupled with the tandem mass spectrometry (LC-MS/MS) method. The LC-MS/MS system consisted of a Shimadzu HPLC system (Kyoto, Japan) and an LCMS-8060 instrument (serial no. 011105500332 AE). The following were the LC conditions: column, HALO ES-C18 2.7 µ C18 160A (50 × 2.1 mm); gradient elution at 0.5 mL/min with 5% acetonitrile in water containing 0.1% formic acid or 95% acetonitrile in water containing 0.1% formic acid; and injection volume of 10 µL. A multiple reaction monitoring (MRM) method was selected for quantitative analysis. For analyte and internal standard, the optimum transitions were 519.50 > 129.15 (five charges) and 649.15 > 120.10 (four charges), 393.20 > 373.25, and 237.15 > 194.15, respectively. The instrumental parameters were set as follows: nebulizing gas flow was 3 L/min; heating gas flow was 10 L/min; interface temperature was 300°C; DL temperature was 250°C; and heat block temperature was 400°C.
PK parameters were estimated by a noncompartmental model with the calculation model of “Linear Trapezoidal Linear Interpolation” using WinNonlin (Phoenix TM, version 8.1). If the plasma F3 was detected, the following pharmacokinetic parameters were measured and calculated: Cmax (maximum blood concentration), Tmax (peak time), T1/2 (elimination half-life), AUC (area under plasma concentration-time curve), Vz_F_obs (apparent distribution volume), Cl_F_obs (clearance rate), and MRTInf_obs (mean residence time).

[2] = Tissue distribution of single subcutaneous injection of F3 (1.0 mg/kg); conditions: LC-MS/MS; for F3 in tissue samples (heart, brain, liver, kidney, lung, spleen, stomach, small intestine, testis, ovaries, subcutaneous fat, skeletal muscle): single s.c. 1.0 mg/kg, 1, 2, 4, 8, 24, 48 h, LOQ in tissues 40–80 ng/g; for level at 4 h / level at 1 h / level at 2 h: Sprague-Dawley, rat, plasma, sc, n=3, read-out: F3 concentration in plasma; for level at 4 h: 4th hr; for level at 1 h: 1 hour after administration; for level at 2 h: mean
Procedure: as §1
Thirty-six SD rats (18 females, 18 males) were randomly selected and given a single subcutaneous injection of F3 at 1.0 mg/kg. Tissue samples were collected at 1, 2, 4, 8, 24, and 48 hours after F3 administration. At each time point, six rats (3 of each sex) were sacrificed. At least 0.5 ml of whole blood was collected before euthanasia, and 0.5–1.0 g of tissue was collected after euthanasia. The heart, brain, liver, kidney, lung, spleen, stomach, small intestine, testis, ovary, subcutaneous fat, and skeletal muscle were among the tissue types studied.
The desired serial concentrations of working solutions were achieved by diluting stock solution (1 mg/mL in DMSO) of analyte with 50% acetonitrile in water. 5 μL of working solutions (10 to 10000 ng/mL) were added to 50 μL of the blank rat plasma and tissues to achieve calibration standards or quality control (QC) samples of 1 to 1000 ng/mL in a total volume of 55 μL.
The resulting standard, QC, or study samples were added to 200 μL of methanol containing IS (50 ng/mL dexamethasone, 2 ng/mL verapamil and 2 ng/mL carbamazepine as internal standard (IS) for protein precipitation. All samples were then vortexed for 30 seconds. After centrifugation at 4°C and 4000 rpm (ca. 3740 x g) for 15 minutes, 100 µL of the supernatant was diluted with 200 µL of water for injection on LC-MS/MS.

SD rats [3] = assay: Functional observation (mortality, clinical signs) in acute toxicity study; conditions: for mortality: single s.c. 1.0, 10.0, 100 mg/kg or 10.0 mg/kg daily x14 d, cage observation
Procedure: The mortality, general health status, and toxic reaction symptoms of the experimental groups were documented. Before the first day of F3 administration and during the experiments, a detailed clinical observation was carried out and recorded the changes in skin, eyes and mucous membrane, respiratory system, nervous system, activity, and behaviors of the rats. The body weight was measured and recorded before the first day of administration.
Forty SD rats (20 males and 20 females) were randomly divided into 4 groups (Figure 1). All rats were given F3 once on the day of the experiment.
Twelve SD rats (6 males, 6 females) were given a daily subcutaneous injection of F3 at a dose of 10.0 mg/kg for consecutive 14 days. The first day of administration was recorded as day 1.

SD rats [4] = assay: Histopathologic examination (H&E) of vital organs; conditions: s.c. 10.0 mg/kg daily x14 d
Excerpt: After blood was collected at the predetermined time points, all rats were euthanized and subjected to a comprehensive general autopsy, which included a thorough examination of the external surface of the body, all foramen, cranial cavity, external surface of the brain, chest, abdomen, pelvic cavity, viscera, cervix, and genitalia. The adrenal gland, brain (brain, cerebellum, and brain stem), epididymis, heart, kidney, liver, ovary, spleen, testis, thymus, thyroid gland, and uterus were carefully collected, weighed, and documented before being kept in 10% neutral formalin buffer (10% NBF).
The H&E staining was followed as reported elsewhere. Following formalin fixation, the important tissues were dehydrated, stained with hematoxylin (about 15 minutes) and eosin (1–3 minutes), dehydrated again with gradient alcohol, clarified in xylene, and then examined and recorded under the microscope.

SD rats [5] = assay: Food intake and body weight gain in acute toxicity study; conditions: single or repeated s.c. injection
Procedure: For 14 days, the body weight was measured before F3 administration on the first day of the experiment and once a week thereafter, with additional measurements on the day before and on the day of the planned autopsy. Food intake was recorded once a week. The rats were anesthetized by inhalation of 70% CO2/30% O2 before dissection, and blood samples were taken for hematology and biochemical analysis. The collected tissue was weighed and preserved for pathological examination.

[6] = female SD rats, single s.c. 1.0 mg/kg
[7] = male SD rats, single s.c. 1.0 mg/kg

CC[C@H](C)[C@H](NC(=O)[C@H](CO)NC(=O)CNC(=O)[C@H](CC(C)C)NC(=O)[C@@H](NC(=O)CNC(=O)[C@H](Cc1ccccc1)NC(=O)[C@H](CC(C)C)NC(=O)CN)C(C)C)C(=O)N[C@@H](C)C(=O)N[C@@H](CCCCN)C(=O)N[C@@H](Cc1c[nH]cn1)C(=O)N[C@H](C(=O)N[C@@H](CC(C)C)C(=O)N1CCC[C@H]1C(=O)N[C@@H](Cc1c[nH]cn1)C(=O)N[C@H](C(=O)N[C@H](C(=O)N1CCC[C@H]1C(=O)N[C@H](C(=O)N[C@H](C(=O)N[C@@H](C)C(=O)N[C@@H](CCC(=O)O)C(=O)N[C@@H](CCCCN)C(=O)N[C@@H](CC(C)C)C(N)=O)[C@@H](C)CC)C(C)C)C(C)C)C(C)C)C(C)C [F3, Caerin 1.9] (H-GLFGVLGSIAKHVLPHVVPVIAEKL-NH2)
AUC(0-inf) ([1]; female SD rats): 222 ng·h/mL
AUC(0-t) ([1]; female SD rats): 216 ng·h/mL
Cmax ([1]; female SD rats): 110 ng/mL
Tmax ([1]; female SD rats): 0.5 h
half-life ([1]; female SD rats): 0.677 h
CL/F ([1]; female SD rats): 75.1 mL/min/kg
MRT ([1]; female SD rats): 1.42 h
AUC(0-inf) ([1]; male SD rats): 686 ng·h/mL
AUC(0-t) ([1]; male SD rats): 661 ng·h/mL
Cmax ([1]; male SD rats): 256 ng/mL
Tmax ([1]; male SD rats): 1 h
half-life ([1]; male SD rats): 1.16 h
CL/F ([1]; male SD rats): 24.3 mL/min/kg
MRT ([1]; male SD rats): 2.05 h
AUC_%Extrap_obs ([1]; female SD rats): 2.88%
T max ([1]; female SD rats): 0.5 h
T max ([1]; male SD rats): 1 h
F3 in tissue samples (heart, brain, liver, kidney, lung, spleen, stomach, small intestine, testis, ovaries, subcutaneous fat, skeletal muscle) ([2]; SD rats, 1 mg/kg): No detectable F3
F3 in tissue samples (heart, brain, liver, kidney, lung, spleen, stomach, small intestine, testis, ovaries, subcutaneous fat, skeletal muscle) ([2]; SD rats, listed as Caerin 1.9, 1 mg/kg): < 40 ng/g
F3 in plasma samples collected at other time points ([2]; SD rats, single s.c. 1.0 mg/kg, time points other than 1, 2, 4 h (8, 24, 48 h)): No detectable F3
level at 4 h [2, 6]: 19.4 ± 5.96 ng/mL
level at 1 h [2, 6]: 174 ± 43 ng/mL
level at 2 h [2, 6]: 49.7 ± 1.71 ng/mL
level at 4 h [2, 7]: 20 ± 9.73 ng/mL
level at 1 h [2, 7]: 165 ± 46.5 ng/mL
level at 2 h [2, 7]: 104 ± 25.5 ng/mL
clinical observation: scabs at the injection site (SD rats [3]; s.c. 10.0 mg/kg daily x14 d, 6 M/6 F): scabs were discovered at the injection site in one female rat, three female rats, and two male rats on the 8th, 12th, and 15th days, respectively
clinical observation (fur, eyes, mucosa, respiratory, circulatory, nervous system, behaviors) (SD rats [3]; single s.c. 1.0 mg/kg or 10.0 mg/kg): no abnormalities
clinical observation: dorsal scabs (SD rats [3]; single s.c. 100.0 mg/kg, 5 M/5 F): one male and two female rats on day 8 and two female rats on day 15 developed dorsal scabs
mortality (SD rats [3]): no rats receiving F3 were found dead or dying; also recorded: No dead or dying rats were observed
mortality (SD rats [3]; listed as Caerin 1.9): does not cause mortality or organ malfunction
histopathologic examination of essential organs (SD rats [4]): no apparent abnormalities
effect on food intake, body weight, and weight change (SD rats [5]): no effect
